Data taken from patent publication US8802104B2, “Parathyroid hormone receptor activation and stem and progenitor cell expansion” (The General Hospital Corporation, priority 2002, dated 2014).
Entries after “also recorded” stand apart in the source; their conditions may differ.

Legend:
[1] = test system: C57Bl/6 stroma and hematopoietic cells (LTC-IC); assay: LTC-IC assay on wild-type stroma, in vitro treatment with PTH; format: cell-based, mouse
Method: (§1) Murine bone marrow stromal cells from confluent cultures were irradiated (15Gy) and plated at a concentration of 20,000 cells/well in 96-well plates in long-term culture medium. Cells were then seeded into the plates in two-fold serial limiting dilutions and cultured at 33° C./5% CO2 in a humidified atmosphere. Cultures were maintained for 5 weeks, changing half of the medium in the wells weekly. Following this, the medium was replaced with methylcellulose containing medium supplemented with recombinant cytokines as described above, then scored for colony growth ten days following the addition of the medium.
LTC-IC assays were performed using wild-type stroma and hematopoietic cells. […] After fixation in 10% Neutral Formalin Buffer for 30 minutes at room temperature, alkaline phosphatase activity was determined histochemically by incubation for 45 minutes at RT with a mixture of 0.1 mg/ml naphthol AS-MX phosphate (Sigma), 0.5% N,N-dimethylformamide, 0.6 mg/ml red violet LB salt (Sigma) in 0.1 M Tris-HCl (pH 8.5). Alkaline phosphatase positive cells were counted at day 10 of culture, when the cultures were subconfluent and individual cells could be identified. […]

[2] = parameters: species or system C57Bl/6 mice; conditions: mouse, in vivo
Method: (§2) For PTH administration, 6-8 week old wild type C57/B male mice were used. Rat PTH (1-34) (80 μg/Kg of body weight) was injected intraperitoneally 5×/week for 4 weeks (n=5). Control mice (n=4) were injected with an equivalent volume of vehicle. At the end of the treatment period, ionized serum calcium was measured by the Ciba/Corning 634 Ca^++/pH analyzer, and, after euthanasia, the hind limbs and forelimbs were dissected and utilized for cytologic and histologic analysis.

[3] = PTH administration following myeloablation and bone marrow transplantation: survival; format: in vivo, C57Bl/6 mice; conditions: at 30 days; lethal irradiation, limiting numbers of donor bone marrow cells, pulse dosing of PTH after transplant; FIG. 6
Method: For the competitive transplant studies, 4×10^5 BM MNCs, obtained from CD45.1^+ B6.SJL (Jackson Laboratories, Bar Harbor, Me.) mice were mixed with 2×10^5 cells from mock injected or PTH injected CD45.2^+ C57Bl/6 mice. Recipient B6.SJL mice that had been lethally irradiated 24 hours previously with 10Gy of radiation (^137Cs source) were injected with cells. After 6 weeks, the mice were euthanized with CO2, the BM was removed and flushed with fully supplemented Iscove's Medium. The relative contribution of engraftment from the different cell sources was assessed by flow cytometry utilizing anti-CD45.1 and anti-CD45.2 antibodies (Pharmingen, San Diego, Calif.). To assess the effects of PTH administration post transplantation, recipient C57Bl/6 mice were lethally irradiated and then injected with 2×10^5 BM MNCs from a donor B6.SJL mouse. Twenty-four hours following the injection of the cells, mice were injected with PTH or mock injected as described above for four weeks.
Assessing whether PPR stimulation could affect models relevant to the clinical use of stem cells in humans, the impact of PTH administration on animals undergoing myeloablation and bone marrow transplantation was assessed. Limiting numbers of bone marrow derived donor cells were used to mimic a setting of therapeutic need. […]

[4] = test system: hematopoietic stem cells (LTC-ICs) in the bone marrow; assay: In vivo PTH administration: LTC-IC frequency in bone marrow; parameters: species or system C57Bl/6 mice
Method: as §1
as §2, with “Rat PTH (1-34) (80 μg/Kg of body weight) was injected intraperitoneally 5×/week for 4 weeks (n=5).” left out
As treatment of stromal cells with PTH led to an increase in the ability of the stromal cell population to support hematopoietic stem cells, it was investigated whether these effects could be recapitulated in vivo. Wild-type C57Bl/6 mice were injected daily with PTH using an intermittent dosing schedule known to increase osteoblasts, and the frequencies of LTC-ICs in the bone marrow were measured. […] To further define that functional stem cells were increased after PTH treatment, an in vivo assay of competitive transplantation into secondary recipients was used and a >2-fold increase in HSCs was documented (P=<0.05, FIG. 5f). […] Therefore, pharmacological activation of PPR increased stem cell number, but appeared to do so without a broad hematopoietic cell expansion.

Substance: Rat PTH (1-34)
- ability of stroma to support LTC-ICs ([1]; PTH 10^-7 M present during expansion of the stromal population, P=0.004, FIG. 5a): enhanced the ability of the stroma to support LTC-ICs; also recorded: increasing LTC-IC
- LTC-IC support ([1]; stromal cells expanded in the absence of PTH, or PTH added at the same time as the hematopoietic cells): the effect was not seen
- hypercalcemia by serum calcium measurements [2]: no evidence of hypercalcemia
- survival [3]: 100%
- hematopoietic stem cells over mock injected mice ([4]; four weeks PTH treatment, 80 μg/Kg i.p. 5x/week): significant increase in the hematopoietic stem cells
- limit dilution LTC-IC assay, stem-like cells ([4]; four weeks PTH, P<0.005, FIG. 5e): an increase in stem-like cells
- hematopoietic stem cell population (frequencies of LTC-ICs in the bone marrow) ([4]; two week PTH treatment, 80 μg/Kg i.p.): did not result in any significant increase
